Results published in US20140093884A1, “Process for Identifying Novel Anti-Inflammatory Molecules with Reduced Direct Transrepression of Genes Induced by Glucocorticoids” (UNIVERSITE DE STRASBOURG, priority 2011, published 2014).

Experiments:
Type in all cases: in vivo, mouse
Parameters in all cases: key: ♦: not repressed
[1] = tested on: IR0, IR1 and IR2 nGRE containing genes; experiment: Q-RT-PCR of IR nGRE-containing genes in liver of 18 hr-Dex-treated WT mice
Excerpt: (§1) Real time PCR. Total RNA was reverse transcribed using hexamers, followed by Q-PCR, as reported (Li et al., 2005).
(§2) A comparison of mouse and human orthologues indicated conservations of such IR elements (51 IR0, 379 IR1 and 566 IR2). Within these orthologue gene families, 35 IR0, 50 IR1 and 50 IR2 nGRE-containing mouse genes (Table 4) were randomly chosen to investigate whether (i) they were expressed in epidermis, intestinal epithelium and liver, (ii) their expression was inhibited by the GC agonist Dexamethasone (Dex), (iii) this inhibition could be relieved by RU486 co-administration, and also if it could be correlated with GR and corepressor binding to their putative IR nGREs.

[2] = tested on: IR0, IR1 and IR2 nGRE containing genes; experiment: Q-RT-PCR of IR nGRE-containing genes in epidermis of 18 hr-Dex-treated WT mice
Excerpt: as §1, §2

[3] = tested on: IR0, IR1 and IR2 nGRE containing genes; experiment: Q-RT-PCR of IR nGRE-containing genes in intestinal epithelium of 18 hr-Dex-treated WT mice
Excerpt: as §1, §2

C[C@@H]1C[C@H]2[C@@H]3CCC4=CC(=O)C=C[C@]4(C)[C@@]3(F)[C@@H](O)C[C@]2(C)[C@@]1(O)C(=O)CO [Dex, dexamethasone]
♦: AIP transcript level, not repressed ([1]; IR0 nGRE gene) | CITED1 transcript level, not repressed ([1]; IR0 nGRE gene) | DLAT transcript level, not repressed ([1]; IR0 nGRE gene) | FBXL18 transcript level, not repressed ([1]; IR0 nGRE gene) | GPIHBP1 transcript level, not repressed ([1]; IR0 nGRE gene) | INHBE transcript level, not repressed ([1]; IR0 nGRE gene) | MTG1 transcript level, not repressed ([1]; IR0 nGRE gene) | NMYC transcript level, not repressed ([1]; IR0 nGRE gene) | PTMS transcript level, not repressed ([1]; IR0 nGRE gene) | TCF25 transcript level, not repressed ([1]; IR0 nGRE gene) | ZBED4 transcript level, not repressed ([1]; IR0 nGRE gene) | ZFP113 transcript level, not repressed ([1]; IR0 nGRE gene) | ZFP784 transcript level, not repressed ([1]; IR0 nGRE gene) | ADRA2A transcript level, not repressed ([1]; IR1 nGRE gene) | AGPAT2 transcript level, not repressed ([1]; IR1 nGRE gene) | BMP3 transcript level, not repressed ([1]; IR1 nGRE gene) | CADM4 transcript level, not repressed ([1]; IR1 nGRE gene) | CDH11 transcript level, not repressed ([1]; IR1 nGRE gene) | CDK9 transcript level, not repressed ([1]; IR1 nGRE gene) | CTSA transcript level, not repressed ([1]; IR1 nGRE gene) | DYNLT3 transcript level, not repressed ([1]; IR1 nGRE gene) | GPR108 transcript level, not repressed ([1]; IR1 nGRE gene) | GPR153 transcript level, not repressed ([1]; IR1 nGRE gene) | HSD11B2 transcript level, not repressed ([1]; IR1 nGRE gene) | KLC3 transcript level, not repressed ([1]; IR1 nGRE gene) | LRRC transcript level, not repressed ([1]; IR1 nGRE gene) | MT2 transcript level, not repressed ([1]; IR1 nGRE gene) | MTHFR transcript level, not repressed ([1]; IR1 nGRE gene) | MXI1 transcript level, not repressed ([1]; IR1 nGRE gene) | SCP2 transcript level, not repressed ([1]; IR1 nGRE gene) | SGK3 transcript level, not repressed ([1]; IR1 nGRE gene) | SREPF1 transcript level, not repressed ([1]; IR1 nGRE gene) | SSTR4 transcript level, not repressed ([1]; IR1 nGRE gene) | STAB1 transcript level, not repressed ([1]; IR1 nGRE gene) | CCR10 transcript level, not repressed ([1]; IR2 nGRE gene) | COL4A3BP transcript level, not repressed ([1]; IR2 nGRE gene) | DPAGT1 transcript level, not repressed ([1]; IR2 nGRE gene) | ELMOD3 transcript level, not repressed ([1]; IR2 nGRE gene) | ERP27 transcript level, not repressed ([1]; IR2 nGRE gene) | FOXJ1 transcript level, not repressed ([1]; IR2 nGRE gene) | FOXQ1 transcript level, not repressed ([1]; IR2 nGRE gene) | GGT1 transcript level, not repressed ([1]; IR2 nGRE gene) | GOT1 transcript level, not repressed ([1]; IR2 nGRE gene) | GPR97 transcript level, not repressed ([1]; IR2 nGRE gene) | GRASP transcript level, not repressed ([1]; IR2 nGRE gene) | HSPB2 transcript level, not repressed ([1]; IR2 nGRE gene) | HSPB3 transcript level, not repressed ([1]; IR2 nGRE gene) | MUC20 transcript level, not repressed ([1]; IR2 nGRE gene) | POMGNT1 transcript level, not repressed ([1]; IR2 nGRE gene) | PRKRA transcript level, not repressed ([1]; IR2 nGRE gene) | SOCS1 transcript level, not repressed ([1]; IR2 nGRE gene) | TNFRSF25 transcript level, not repressed ([1]; IR2 nGRE gene) | AIP transcript level, not repressed ([2]; IR0 nGRE gene) | DDI1 transcript level, not repressed ([2]; IR0 nGRE gene) | DLAT transcript level, not repressed ([2]; IR0 nGRE gene) | FBXL18 transcript level, not repressed ([2]; IR0 nGRE gene) | FSD2 transcript level, not repressed ([2]; IR0 nGRE gene) | GPIHBP1 transcript level, not repressed ([2]; IR0 nGRE gene) | HCST transcript level, not repressed ([2]; IR0 nGRE gene) | KLF5 transcript level, not repressed ([2]; IR0 nGRE gene) | LAG3 transcript level, not repressed ([2]; IR0 nGRE gene) | MTG1 transcript level, not repressed ([2]; IR0 nGRE gene) | NEU1 transcript level, not repressed ([2]; IR0 nGRE gene) | PTMS transcript level, not repressed ([2]; IR0 nGRE gene) | SLC25A5 transcript level, not repressed ([2]; IR0 nGRE gene) | TCF25 transcript level, not repressed ([2]; IR0 nGRE gene) | TRPM7 transcript level, not repressed ([2]; IR0 nGRE gene) | ZBED4 transcript level, not repressed ([2]; IR0 nGRE gene) | ZFP113 transcript level, not repressed ([2]; IR0 nGRE gene) | ZFP467 transcript level, not repressed ([2]; IR0 nGRE gene) | ZFP784 transcript level, not repressed ([2]; IR0 nGRE gene) | AGPAT2 transcript level, not repressed ([2]; IR1 nGRE gene) | AKAP6 transcript level, not repressed ([2]; IR1 nGRE gene) | ARHGAP23 transcript level, not repressed ([2]; IR1 nGRE gene) | ATN1 transcript level, not repressed ([2]; IR1 nGRE gene) | B4GALT2 transcript level, not repressed ([2]; IR1 nGRE gene) | BCL2L1 transcript level, not repressed ([2]; IR1 nGRE gene) | BEST2 transcript level, not repressed ([2]; IR1 nGRE gene) | BMP3 transcript level, not repressed ([2]; IR1 nGRE gene) | CACNA2D3 transcript level, not repressed ([2]; IR1 nGRE gene) | CADM4 transcript level, not repressed ([2]; IR1 nGRE gene) | CDK9 transcript level, not repressed ([2]; IR1 nGRE gene) | CTSA transcript level, not repressed ([2]; IR1 nGRE gene) | DYNLT3 transcript level, not repressed ([2]; IR1 nGRE gene) | GNG10 transcript level, not repressed ([2]; IR1 nGRE gene) | GPR108 transcript level, not repressed ([2]; IR1 nGRE gene) | GPR153 transcript level, not repressed ([2]; IR1 nGRE gene) | JUND transcript level, not repressed ([2]; IR1 nGRE gene) | KLC3 transcript level, not repressed ([2]; IR1 nGRE gene) | LRRC transcript level, not repressed ([2]; IR1 nGRE gene) | MT2 transcript level, not repressed ([2]; IR1 nGRE gene) | MTHFR transcript level, not repressed ([2]; IR1 nGRE gene) | MXI1 transcript level, not repressed ([2]; IR1 nGRE gene) | NKRF transcript level, not repressed ([2]; IR1 nGRE gene) | SCP2 transcript level, not repressed ([2]; IR1 nGRE gene) | SREPF1 transcript level, not repressed ([2]; IR1 nGRE gene) | SSTR4 transcript level, not repressed ([2]; IR1 nGRE gene) | STAB1 transcript level, not repressed ([2]; IR1 nGRE gene) | USF1 transcript level, not repressed ([2]; IR1 nGRE gene) | COL4A3BP transcript level, not repressed ([2]; IR2 nGRE gene) | ELMOD3 transcript level, not repressed ([2]; IR2 nGRE gene) | FKBP2 transcript level, not repressed ([2]; IR2 nGRE gene) | FOXQ1 transcript level, not repressed ([2]; IR2 nGRE gene) | GGT1 transcript level, not repressed ([2]; IR2 nGRE gene) | GIT2 transcript level, not repressed ([2]; IR2 nGRE gene) | GLU1 transcript level, not repressed ([2]; IR2 nGRE gene) | GOT1 transcript level, not repressed ([2]; IR2 nGRE gene) | GPR97 transcript level, not repressed ([2]; IR2 nGRE gene) | GRASP transcript level, not repressed ([2]; IR2 nGRE gene) | HSPB2 transcript level, not repressed ([2]; IR2 nGRE gene) | POMGNT1 transcript level, not repressed ([2]; IR2 nGRE gene) | PRKRA transcript level, not repressed ([2]; IR2 nGRE gene) | RORA transcript level, not repressed ([2]; IR2 nGRE gene) | SLC2A8 transcript level, not repressed ([2]; IR2 nGRE gene) | TGM6 transcript level, not repressed ([2]; IR2 nGRE gene) | AIP transcript level, not repressed ([3]; IR0 nGRE gene) | ANO4 transcript level, not repressed ([3]; IR0 nGRE gene) | CITED1 transcript level, not repressed ([3]; IR0 nGRE gene) | DLAT transcript level, not repressed ([3]; IR0 nGRE gene) | FBXL18 transcript level, not repressed ([3]; IR0 nGRE gene) | GPIHBP1 transcript level, not repressed ([3]; IR0 nGRE gene) | KLF5 transcript level, not repressed ([3]; IR0 nGRE gene) | LAG3 transcript level, not repressed ([3]; IR0 nGRE gene) | MAPK4 transcript level, not repressed ([3]; IR0 nGRE gene) | MTG1 transcript level, not repressed ([3]; IR0 nGRE gene) | NDUFA4L2 transcript level, not repressed ([3]; IR0 nGRE gene) | NEU1 transcript level, not repressed ([3]; IR0 nGRE gene) | PPIL5 transcript level, not repressed ([3]; IR0 nGRE gene) | PTMS transcript level, not repressed ([3]; IR0 nGRE gene) | SLC25A5 transcript level, not repressed ([3]; IR0 nGRE gene) | SP9 transcript level, not repressed ([3]; IR0 nGRE gene) | SPARC transcript level, not repressed ([3]; IR0 nGRE gene) | TCF25 transcript level, not repressed ([3]; IR0 nGRE gene) | TRPM7 transcript level, not repressed ([3]; IR0 nGRE gene) | ZBED4 transcript level, not repressed ([3]; IR0 nGRE gene) | ZFP113 transcript level, not repressed ([3]; IR0 nGRE gene) | ZFP467 transcript level, not repressed ([3]; IR0 nGRE gene) | ZFP784 transcript level, not repressed ([3]; IR0 nGRE gene) | ADRA2A transcript level, not repressed ([3]; IR1 nGRE gene) | AGPAT2 transcript level, not repressed ([3]; IR1 nGRE gene) | ATN1 transcript level, not repressed ([3]; IR1 nGRE gene) | BCL2L1 transcript level, not repressed ([3]; IR1 nGRE gene) | BMP3 transcript level, not repressed ([3]; IR1 nGRE gene) | CADM4 transcript level, not repressed ([3]; IR1 nGRE gene) | CDH11 transcript level, not repressed ([3]; IR1 nGRE gene) | CDK9 transcript level, not repressed ([3]; IR1 nGRE gene) | CTSA transcript level, not repressed ([3]; IR1 nGRE gene) | DYNLT3 transcript level, not repressed ([3]; IR1 nGRE gene) | GPR108 transcript level, not repressed ([3]; IR1 nGRE gene) | GPR153 transcript level, not repressed ([3]; IR1 nGRE gene) | KLC3 transcript level, not repressed ([3]; IR1 nGRE gene) | LRRC transcript level, not repressed ([3]; IR1 nGRE gene) | MTHFR transcript level, not repressed ([3]; IR1 nGRE gene) | MXI1 transcript level, not repressed ([3]; IR1 nGRE gene) | NKRF transcript level, not repressed ([3]; IR1 nGRE gene) | SCP2 transcript level, not repressed ([3]; IR1 nGRE gene) | SOCS3 transcript level, not repressed ([3]; IR1 nGRE gene) | SREPF1 transcript level, not repressed ([3]; IR1 nGRE gene) | SSTR4 transcript level, not repressed ([3]; IR1 nGRE gene) | STAB1 transcript level, not repressed ([3]; IR1 nGRE gene) | COL4A3BP transcript level, not repressed ([3]; IR2 nGRE gene) | DPAGT1 transcript level, not repressed ([3]; IR2 nGRE gene) | ELMOD3 transcript level, not repressed ([3]; IR2 nGRE gene) | ERP27 transcript level, not repressed ([3]; IR2 nGRE gene) | FSTL1 transcript level, not repressed ([3]; IR2 nGRE gene) | GIT2 transcript level, not repressed ([3]; IR2 nGRE gene) | GLU1 transcript level, not repressed ([3]; IR2 nGRE gene) | GOT1 transcript level, not repressed ([3]; IR2 nGRE gene) | GPR68 transcript level, not repressed ([3]; IR2 nGRE gene) | GUK1 transcript level, not repressed ([3]; IR2 nGRE gene) | HSPB2 transcript level, not repressed ([3]; IR2 nGRE gene) | HSPB3 transcript level, not repressed ([3]; IR2 nGRE gene) | ITPKA transcript level, not repressed ([3]; IR2 nGRE gene) | MUC20 transcript level, not repressed ([3]; IR2 nGRE gene) | PRKRA transcript level, not repressed ([3]; IR2 nGRE gene) | SLC2A8 transcript level, not repressed ([3]; IR2 nGRE gene) | SLC25A34 transcript level, not repressed ([3]; IR2 nGRE gene) | SOCS1 transcript level, not repressed ([3]; IR2 nGRE gene) | TGM6 transcript level, not repressed ([3]; IR2 nGRE gene) | TNFRSF25 transcript level, not repressed ([3]; IR2 nGRE gene)
